From US4963530A, “Renin inhibitor peptide compounds, a process for the preparation thereof and pharmaceutical composition comprising the same” (Fujisawa Pharmaceutical Company, Ltd., priority 1987, dated 1990) come the findings set out here.

Positions count from the first letter of the chain named.

The target in experiment [1] is T1, endogenous renin in human plasma (Homo sapiens, UniProt P00797).
T1 construct: incubation (37° C.) of the endogenous renin and angiotensinogen in plasma at pH 6.0; from tissue; host or cells: pooled human plasma (EDTA) from male volunteers
T1 sequence (P00797 67-406): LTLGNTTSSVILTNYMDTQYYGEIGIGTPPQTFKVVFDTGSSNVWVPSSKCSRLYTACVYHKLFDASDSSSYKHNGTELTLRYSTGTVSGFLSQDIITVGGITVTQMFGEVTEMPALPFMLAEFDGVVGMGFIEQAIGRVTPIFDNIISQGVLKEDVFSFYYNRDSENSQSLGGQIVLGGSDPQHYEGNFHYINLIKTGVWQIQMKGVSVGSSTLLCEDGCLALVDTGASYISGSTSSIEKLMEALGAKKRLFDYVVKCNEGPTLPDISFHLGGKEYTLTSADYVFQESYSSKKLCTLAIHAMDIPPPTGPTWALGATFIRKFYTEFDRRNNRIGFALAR
Briefly: Test 1: inhibition of human plasma renin activity (Ang I formation, RIA). It counts as biochemical. The following applies: human plasma pool, pH 6.0, 37° C., 90 minutes incubation, Probit method; read-out: IC50 (concentration that inhibited plasma renin activity by 50%). How it is done:
Human plasma was collected from male volunteers pretreated with no drugs and used as a pool. Disodium salt of ethylenediaminetetraacetic acid (EDTA) was used as the anticoagulant. Plasma renin activity was measured as the rate of angiotensin I (Ang I) formation after incubation (37° C.) of the endogenous renin and angiotensinogen in plasma at pH 6.0. The incubation mixture contained 250 μl of plasma, 5 μl of (phenylmethyl)sulfonyl fluoride, 30 μl of buffer (sodium, potassium-phosphate, pH 6.0), and 15 μl of an appropriate concentration of test compound in 50% ethyl alcohol-water vehicle. The Ang I formed after 90 minutes of incubation was measured by radioimmunoassay (RIA) which was carried out with a commercial kit, RENCTK 100 (manufactured by Commissariat A L'energie Atomique). Samples were incubated in duplicate and each tube was measured in duplicate in the RIA. Percentage inhibition of plasma renin activity was calculated by comparing the amount of Ang I produced with and without a test compound. The concentration of test compound that inhibited plasma renin activity by 50% ) (IC50) was determined by Probit method.

Experiment [2] is described as follows: Test 2: hypotensive effect (mean arterial blood pressure) in sodium-depleted conscious cynomolgus monkeys, oral. The following applies: 32 mg/kg po, sodium-depleted (furosemide) conscious cynomolgus monkeys, MAP measured 0-6 hours. In kind it is in vivo, cynomolgus monkeys (Macaca fascicularis). How it is done: (§1) Male or female cynomolgus monkeys (Macaca fascicularis) weighing about 2.5-3.5 kg were used. Sodium depletion was achieved by administering furosemide, 15 mg/kg subcutaneously one day before and then 10 mg/kg intravenously 30 minutes before the administration of the test compound.
(§2) Test compounds were dissolved in diluted equimolar hydrochloric acid (pH 5-6) and orally administered to conscious and trained monkeys placed in restraining chairs with pneumatic cuff positioned around the arm for oscillometric measurement of mean arterial blood pressure (MAP) (Model BP-203 NPJ, manufactured by Nippon Colin).
The MAP was measured at 0 (predosing base line), 0.5, 1, 2, 3, 4 and 6 hours after administration of the test compound. The maximum hypotensive effect was calculated as the maximum percentage fall of MAP from the pretreatment value.

The target in experiment [3] is T2, plasma renin activity (PRA) (Macaca fascicularis, UniProt Q6DLS0).
T2 construct: plasmas were obtained for determination of plasma renin activity (PRA); from tissue; host or cells: plasma of sodium-depleted cynomolgus monkeys, collected after oral dosing
T2 sequence (Q6DLS0 67-406): T1 sequence (P00797 67-406) with T2A, I148L, S169A
Briefly: Test 2: inhibition of plasma renin activity (PRA) in sodium-depleted cynomolgus monkeys after oral dosing. In kind it is in vivo, cynomolgus monkeys (Macaca fascicularis). The following applies: cynomolgus monkey; 32 mg/kg po, sodium-depleted (furosemide) cynomolgus monkeys, plasma collected 0-6 hours after dosing; read-out: Maximum inhibition of PRA. How it is done:
as §1, §2
Blood samples were collected at 0, 0.5, 1, 2, 4 and 6 hours after dosing from the antecubital vein of the monkey into disodium salt of EDTA coated tubes, centrifuged for 10 min (3000 rpm, 4° C.) and plasmas were obtained for determination of plasma renin activity (PRA). PRA was measured as the rate of Ang I formation with the same principle as illustrated in Test 1. 100 μl of sample plasma was mixed with 100 μl of the solution of angiotensinase inhibitors (3 mM 8-hydroxyquinoline sulfate and 5 mM 2,3-dimercaptopropanol , SB-REN-1, SORIN BIOMEDICA, Italy). Half (100 μl) of the mixture was incubated at 37° C. for one hour and Ang I formed was determined by a commercial RIA kit (DINABOTT). […] Percentage inhibition of PRA was calculated by the following formula: [formula] […]

As for `CC(C)CC[C@H](O)[C@H](CC1CCCCC1)NC(=O)[C@H](Cc1c[nH]cn1)N(C)C(=O)[C@H](Cc1ccccc1)NC(=O)N1CCSCC1` [Test Compound (c), 2(S)-(N-Thiomorpholinocarbonyl-L-phenylalanyl-N^α -methyl-L-histidyl)amino-1-cyclohexyl-3(S)-hydroxy-6-methylheptane], in experiment [1], the IC50 came out at 0.024 µM.

For `CC(C)CC[C@H](O)[C@H](CC1CCCCC1)NC(=O)[C@H](Cc1c[nH]cn1)NC(=O)[C@H](Cc1ccccc1)NC(=O)N1CCOCC1` [Test Compound (a), 2(S)-(N-Morpholinocarbonyl-L-phenylalanyl-L-histidyl)amino-1-cyclohexyl-3(S)-hydroxy-6-methylheptane], the IC50 in experiment [1] was found to be 0.061 µM.

For `CC(C)CC[C@H](O)[C@H](CC1CCCCC1)NC(=O)[C@H](Cc1c[nH]cn1)N(C)C(=O)[C@H](Cc1ccccc1)NC(=O)N1CCOCC1` [Test Compound (b), 2(S)-(N-Morpholinocarbonyl-L-phenylalanyl-N^α -methyl-L-histidyl)amino-1-cyclohexyl-3(S)-hydroxy-6-methylheptane], the “Maximum hypotensive effect (maximum percentage fall of MAP from pretreatment value)” value in experiment [2] stood at 25%. Besides, in experiment [1], the IC50 worked out at 0.021 µM. The inhibition at 32 mg/kg in experiment [3] came out at 96%.

Turning to `CC(C)CC[C@H](O)[C@H](CC1CCCCC1)NC(=O)[C@H](Cc1c[nH]cn1)N(C)C(=O)[C@H](Cc1ccccc1)NC(=O)N1CCc2ccccc2C1` [Test Compound (d), 2(S)-[N-(1,2,3,4-Tetrahydroisoquinolin-2-ylcarbonyl)-L-phenylalanyl-N^α -methyl-L-histidyl]amino-1-cyclohexyl-3(S)-hydroxy-6-methylheptane], in experiment [1], the IC50 was found to be 0.06 µM.
